According to patent EP0241618A2, “Phenyl ethanol amine derivative for use as an oncolytic medicament” (ELI LILLY AND COMPANY, priority 1985, dated 1987):

Tests used:
6C3HED Lymphosarcoma = assay: In vivo tumor growth inhibition, subcutaneously implanted tumor in mice; settings: intravenous injection twice daily for five days, started the day following inoculation
Description: (§1) The compound of the above example has been extensively evaluated for oncolytic activity in in vivo laboratory studies. In a typical experiment, laboratory mice were infected by subcutaneous implantation of a tumor tissue in the axillary region of the body. The implantations were accomplished by means of a trocar. Initial tumor size in each animal generally was about 2 square millimeters. Control animals received saline. Tumors were measured using vernier calipers (length and width in mm) following a specified period of treatment. The length and width measurements were converted to tumor weight by the formula: • The percent inhibition of tumor growth was then calculated for each dose level at which the compound was evaluated. Typical tumor systems implanted and against which the compound was evaluated include the CA-755 strain of adenocarcinoma, the M-5 ovarian carcinoma, the 6C3HED lymphosarcoma, the X-5563 plasma cell myeloma, the Lewis lung carcinoma, colon carcinoma-26, and C3H mammary adenocarcinoma.
(§2) Each test group consisted of ten mice. R-N-(2-phenyl-2-hydroxyethyl)-1,i-dimethyl-3-(4-aminocarbonylphenyl)propylamine hydrochloride was dissolved in 5% aqueous saline and administered twice daily for five days as a 0.2 ml intravenous injection. Treatment was initiated on the day following inoculation of the test animals.

[1] = tested on: C3H Mammary Adenocarcinoma; assay: as above; settings: intravenous injection twice daily for five days, started the day following inoculation
Description: as §1, §2

CA-755 Adenocarcinoma = assay: as above; settings: intravenous injection twice daily for five days, started the day following inoculation
Description: as §1, §2

Lewis Lung Carcinoma = assay: as above; settings: intravenous injection twice daily for five days, started the day following inoculation
Description: as §1, §2

[2] = tested on: X-5563 Plasma Cell Myeloma; assay: as above; settings: intravenous injection twice daily for five days, started the day following inoculation
Description: as §1, §2

Colon Carcinoma-26 = assay: In vivo tumor growth inhibition, delayed treatment of established tumor in mice; settings: I.V. injection twice daily for five days, 3 days delay following inoculation
Description: as §1
(§3) Table II presents the results of studies carried out substantially as described above, except the treatment regimens were delayed for a short period following inoculation to permit the tumor to become established and start growing. Treatment consisted of I.V. injection of 02 ml of the appropriate amount of R-N-(2-phenyl-2-hydroxyethyl)-1,1-dimethyl-3-(4-aminocarbonylphenyl)propylamine hydrochloride in 5% aqueous saline twice daily for five days. Tumors were then measured as described above and compared with untreated controls.

M-5 Ovarian Carcinoma = assay: as above; settings: I.V. injection twice daily for five days, 5 days delay following inoculation
Description: as §1, §3

cell culture = assay: Antimitotic activity in cell culture; assay type: cell-based; settings: concentration at which activity is seen
Text: (§4) The potent oncolytic activity of the compound to be employed in the present method of treatment has been established in standard tests designed to evaluate antitumor activity. […] The effect on spindle; microtubules appears to reflect a specific effect on the microtubule organizing center of the spindle, i.e., the centrosomes. These studies have been documented by immunofluorescent light microscopy, transmission electron microscopy and flow cytometric techniques. […] In cell culture, the compound has antimitotic activity at 2.5 u.g/ml and affects mitochondrial function at 0.01 u.g/ml as measured by alterations in Rhodamine 123 binding.

[3] = tested on: Chinese hamster ovary cells; assay: Cell cycle accumulation in cells grown in low calcium medium; assay type: cell-based
Text: as §4

cytoplasmic microtubules = assay: Cell biology studies of microtubules (immunofluorescent light microscopy, transmission electron microscopy, flow cytometry); assay type: cell-based; settings: appears to affect only the spindle microtubules
Text: as §4

CC(C)(CCc1ccc(C(N)=O)cc1)NC[C@H](O)c1ccccc1.Cl [Compound, R-N-(2-phenyl-2-hydroxyethyl)-1,1-dimethyl-3-(4-aminocarbonylphenyl)propylamine hydrochloride]
% Inhibition (6C3HED Lymphosarcoma; Dose 20 mg/kg): 11%
% Inhibition (6C3HED Lymphosarcoma; Dose 40 mg/kg): 9%
% Inhibition (6C3HED Lymphosarcoma; Dose 80 mg/kg): 23%
% Inhibition ([1]; Dose 20 mg/kg): 57%
% Inhibition ([1]; Dose 40 mg/kg): 95%
% Inhibition ([1]; Dose 80 mg/kg): 96%
% Inhibition (CA-755 Adenocarcinoma; Dose 10 mg/kg): 79%
% Inhibition (CA-755 Adenocarcinoma; Dose 20 mg/kg): 95%
% Inhibition (CA-755 Adenocarcinoma; Dose 40 mg/kg): 92%
% Inhibition (CA-755 Adenocarcinoma; Dose 80 mg/kg): 95%
% Inhibition (Lewis Lung Carcinoma; Dose 20 mg/kg): 35%
% Inhibition (Lewis Lung Carcinoma; Dose 40 mg/kg): 68%
% Inhibition (Lewis Lung Carcinoma; Dose 80 mg/kg): 81%
% Inhibition ([2]; Dose 20 mg/kg): 29%
% Inhibition ([2]; Dose 40 mg/kg): 21%
% Inhibition ([2]; Dose 80 mg/kg): 65%
% Inhibition (Colon Carcinoma-26; Dose 20 (mg/ml)): 30%
Deaths/total mice in group (Colon Carcinoma-26; Dose 20 (mg/ml)): 0/10
% Inhibition (Colon Carcinoma-26; Dose 40 (mg/ml)): 61%
Deaths/total mice in group (Colon Carcinoma-26; Dose 40 (mg/ml)): 1/10
% Inhibition (Colon Carcinoma-26; Dose 80 (mg/ml)): 64%
Deaths/total mice in group (Colon Carcinoma-26; Dose 80 (mg/ml)): 4/9
% Inhibition (M-5 Ovarian Carcinoma; Dose 20 (mg/ml)): 40%
Deaths/total mice in group (M-5 Ovarian Carcinoma; Dose 20 (mg/ml)): 0/10
% Inhibition (M-5 Ovarian Carcinoma; Dose 40 (mg/ml)): 61%
Deaths/total mice in group (M-5 Ovarian Carcinoma; Dose 40 (mg/ml)): 0/10
% Inhibition (M-5 Ovarian Carcinoma; Dose 80 (mg/ml)): 81%
Deaths/total mice in group (M-5 Ovarian Carcinoma; Dose 80 (mg/ml)): 0/10
minimal effective concentration (cell culture): 2.5 µg/mL
S-phase accumulation [3]: causes an S-phase accumulation
effect on cytoplasmic microtubules (cytoplasmic microtubules): no apparent effect
